Read-outs that look alike come from different tables or passages of the source.
Key:
Assay type in all cases: biochemical
[1] = molecular target: T1, triacylglycerol hydrolase (TGH) (Mus musculus, UniProt Q8VCT4); test: Activity based protein profiling (proteome-wide selectivity screening, FP-Rh), TGH; conditions: Table 4; for IC50: activity based protein profiling; for TGH selectivity (value in parentheses): ratio TGH IC50 / FAAH IC50 (fold selectivity for FAAH)
T1 construct: with FP-Rh in brain and heart membrane proteome; from tissue; host or cells: brain and heart membrane proteome
T1 sequence (Q8VCT4 19-565): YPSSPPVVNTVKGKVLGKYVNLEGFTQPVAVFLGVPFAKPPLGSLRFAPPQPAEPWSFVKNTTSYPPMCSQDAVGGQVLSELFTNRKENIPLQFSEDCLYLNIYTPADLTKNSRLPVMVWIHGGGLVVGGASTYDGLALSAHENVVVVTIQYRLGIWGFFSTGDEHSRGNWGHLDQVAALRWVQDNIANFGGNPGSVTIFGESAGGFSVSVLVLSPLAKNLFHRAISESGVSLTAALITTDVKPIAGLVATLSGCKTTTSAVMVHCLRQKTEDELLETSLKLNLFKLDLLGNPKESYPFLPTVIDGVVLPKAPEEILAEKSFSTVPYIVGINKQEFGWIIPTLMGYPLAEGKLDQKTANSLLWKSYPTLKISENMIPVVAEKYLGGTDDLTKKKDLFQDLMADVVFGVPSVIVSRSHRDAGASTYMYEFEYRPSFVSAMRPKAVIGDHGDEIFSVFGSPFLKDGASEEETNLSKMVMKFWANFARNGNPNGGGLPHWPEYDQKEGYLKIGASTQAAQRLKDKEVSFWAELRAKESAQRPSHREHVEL
Description: (§1) Enzyme targets such as FAAH, KIAA1363, and TGH are labeled at the left margin.

[2] = molecular target: T2, purified recombinant rat FAAH (Rattus norvegicus, UniProt P97612); test: FAAH inhibition enzyme assay (14C-oleamide hydrolysis, Dixon plot), rat enzyme
T2 construct: The truncated rat FAAH (rFAAH) was expressed in E. coli and purified as described; made in house; host or cells: Escherichia coli
T2 sequence (P97612 30-579 limits assumed): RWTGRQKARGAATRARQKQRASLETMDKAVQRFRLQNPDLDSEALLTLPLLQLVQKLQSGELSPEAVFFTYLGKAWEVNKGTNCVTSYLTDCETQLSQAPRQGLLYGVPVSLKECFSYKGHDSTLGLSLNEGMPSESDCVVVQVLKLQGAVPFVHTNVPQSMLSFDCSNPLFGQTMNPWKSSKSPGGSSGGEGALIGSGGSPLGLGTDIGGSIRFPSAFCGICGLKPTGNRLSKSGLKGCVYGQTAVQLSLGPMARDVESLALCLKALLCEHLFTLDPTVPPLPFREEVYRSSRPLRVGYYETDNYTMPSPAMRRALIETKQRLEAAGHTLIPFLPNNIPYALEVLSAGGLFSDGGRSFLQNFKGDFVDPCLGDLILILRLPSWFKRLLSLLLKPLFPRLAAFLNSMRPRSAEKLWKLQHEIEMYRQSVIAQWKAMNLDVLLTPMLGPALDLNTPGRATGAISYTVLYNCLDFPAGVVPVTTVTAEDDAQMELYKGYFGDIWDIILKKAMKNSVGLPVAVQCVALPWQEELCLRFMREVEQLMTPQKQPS
Description: (§2) The purified recombinant rFAAH was used in the inhibition assays unless otherwise indicated.
(§3) The ^14C-labeled oleamide (substrate) and oleic acid (product) were extracted with EtOAc and analyzed by TLC.

KIAA1363 = molecular target: T3, KIAA1363 (Mus musculus, UniProt Q8BLF1); test: Activity based protein profiling (proteome-wide selectivity screening, FP-Rh), KIAA1363; conditions: Table 4; for IC50: activity based protein profiling; for KIAA1363 selectivity (value in parentheses): ratio KIAA1363 IC50 / FAAH IC50 (fold selectivity for FAAH)
T3 construct: with FP-Rh in brain and heart membrane proteome; from tissue; host or cells: brain and heart membrane proteome
T3 sequence (Q8BLF1 1-408): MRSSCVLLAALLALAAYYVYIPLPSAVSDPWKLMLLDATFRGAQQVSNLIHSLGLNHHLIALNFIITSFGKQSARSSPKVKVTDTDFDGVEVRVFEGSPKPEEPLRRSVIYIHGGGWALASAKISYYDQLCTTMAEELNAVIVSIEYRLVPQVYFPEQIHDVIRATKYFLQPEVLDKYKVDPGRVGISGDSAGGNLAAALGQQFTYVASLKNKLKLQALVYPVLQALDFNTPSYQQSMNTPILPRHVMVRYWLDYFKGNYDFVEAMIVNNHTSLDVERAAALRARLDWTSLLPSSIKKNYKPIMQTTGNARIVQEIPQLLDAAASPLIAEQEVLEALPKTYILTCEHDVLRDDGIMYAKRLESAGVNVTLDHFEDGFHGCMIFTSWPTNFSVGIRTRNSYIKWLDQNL
Description: as §1

FAAH = molecular target: T4, FAAH (Mus musculus, UniProt O08914); test: Activity based protein profiling (proteome-wide selectivity screening, FP-Rh), FAAH; conditions: Table 4
T4 construct: with FP-Rh in brain and heart membrane proteome; from tissue; host or cells: brain and heart membrane proteome
T4 sequence (O08914 1-579): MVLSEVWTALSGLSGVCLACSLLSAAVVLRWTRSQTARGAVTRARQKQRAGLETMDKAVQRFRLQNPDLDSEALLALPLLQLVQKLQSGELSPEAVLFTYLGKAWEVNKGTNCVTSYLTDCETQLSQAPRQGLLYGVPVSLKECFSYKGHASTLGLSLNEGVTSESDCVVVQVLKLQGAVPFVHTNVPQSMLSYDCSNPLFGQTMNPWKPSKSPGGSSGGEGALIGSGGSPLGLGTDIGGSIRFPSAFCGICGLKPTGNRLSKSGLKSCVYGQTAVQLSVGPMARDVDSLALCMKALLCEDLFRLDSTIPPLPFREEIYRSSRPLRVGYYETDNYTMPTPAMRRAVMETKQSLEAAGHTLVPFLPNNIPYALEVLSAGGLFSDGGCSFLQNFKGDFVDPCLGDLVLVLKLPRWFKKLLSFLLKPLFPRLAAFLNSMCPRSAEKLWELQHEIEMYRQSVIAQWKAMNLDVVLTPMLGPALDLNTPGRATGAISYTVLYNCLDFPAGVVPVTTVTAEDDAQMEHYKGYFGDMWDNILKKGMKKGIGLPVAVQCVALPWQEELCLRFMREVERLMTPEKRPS
Description: as §1

[3] = molecular target: T5, recombinant human fatty acid amide hydrolase (Homo sapiens, UniProt O00519); test: FAAH inhibition enzyme assay, human enzyme (COS-7 lysate); conditions: Table 3
T5 construct: The full-length human FAAH (hFAAH) was expressed in COS-7 cells as described; expressed in transfected cells; host or cells: COS-7
T5 sequence (O00519 1-579): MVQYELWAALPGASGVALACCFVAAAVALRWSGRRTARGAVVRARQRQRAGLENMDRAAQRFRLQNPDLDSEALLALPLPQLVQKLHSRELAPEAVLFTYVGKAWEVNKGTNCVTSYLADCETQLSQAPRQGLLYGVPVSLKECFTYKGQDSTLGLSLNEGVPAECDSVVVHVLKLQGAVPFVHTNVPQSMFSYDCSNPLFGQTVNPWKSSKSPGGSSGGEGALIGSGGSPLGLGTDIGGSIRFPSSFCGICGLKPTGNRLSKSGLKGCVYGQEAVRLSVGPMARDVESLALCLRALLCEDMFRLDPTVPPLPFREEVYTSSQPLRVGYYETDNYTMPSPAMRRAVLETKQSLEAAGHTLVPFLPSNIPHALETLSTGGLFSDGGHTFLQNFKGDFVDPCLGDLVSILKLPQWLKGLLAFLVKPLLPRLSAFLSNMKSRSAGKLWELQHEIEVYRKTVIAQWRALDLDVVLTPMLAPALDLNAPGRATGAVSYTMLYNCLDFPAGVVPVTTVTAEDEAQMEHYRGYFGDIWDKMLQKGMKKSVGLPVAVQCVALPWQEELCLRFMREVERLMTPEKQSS
Description: as §2, §3

[4] = Table 2, rat FAAH, pH 9 assay conditions, read-out: Ki

SMILES: O=C(CCCCCCc1ccccc1)c1ncon1 [10a, 1-(1,2,4-Oxadiazol-3-yl)-7-phenylheptan-1-one]
- IC50 [1]: 10 nM
- TGH selectivity (value in parentheses) [1]: 0.02
- Ki [2, 4]: 7 nM
- Ki ([2]; Table 4, read-out: FAAH Ki): 7 nM
- IC50 (KIAA1363): > 100000 nM
- KIAA1363 selectivity (value in parentheses) (KIAA1363): > 200
- IC50 (FAAH): 500 nM

SMILES: COC(=O)c1nc(C(=O)CCCCCCc2ccccc2)no1 [10h, Methyl 3-(7-Phenylheptanoyl)-1,2,4-oxadiazole-5-carboxylate]
- IC50 [1]: 200 nM
- TGH selectivity (value in parentheses) [1]: 20
- Ki ([2]; Table 4, read-out: FAAH Ki): 7 nM
- Ki ([2]; rat FAAH, pH 9, read-out: Ki): < 10 nM
- IC50 (KIAA1363): > 100000 nM
- KIAA1363 selectivity (value in parentheses) (KIAA1363): > 10000
- IC50 (FAAH): 10 nM

SMILES: O=C(CCCCCCc1ccccc1)c1nccs1 [11a, 7-Phenyl-1-(thiazol-2-yl)-heptan-1-one]
- Ki [2, 4]: 800 nM
- Ki ([2]; Table 4, read-out: FAAH Ki): 800 nM
- IC50 (KIAA1363): > 100000 nM
- IC50 (FAAH): > 100000 nM

SMILES: COC(=O)c1cccc(-c2cnc(C(=O)CCCCCCc3ccccc3)s2)n1 [11f, Methyl 6-(2-(7-Phenylheptanoyl)-thiazol-5-yl)-picolinate]
- IC50 [1]: 40000 nM
- TGH selectivity (value in parentheses) [1]: < 0.4
- Ki [2, 4]: 500 nM
- Ki ([2]; Table 4, read-out: FAAH Ki): 500 nM
- IC50 (KIAA1363): > 100000 nM
- IC50 (FAAH): > 100000 nM

SMILES: O=C(CCCCCCc1ccccc1)c1nncs1 [12a, 7-Phenyl-1-(1,3,4-thiadiazol-2-yl)-heptan-1-one]
- IC50 [1]: 100 nM
- Ki [2, 4]: 1.4 nM
- Ki ([2]; Table 4, read-out: FAAH Ki): 1.4 nM
- IC50 (KIAA1363): > 100000 nM
- KIAA1363 selectivity (value in parentheses) (KIAA1363): > 330
- IC50 (FAAH): 300 nM

SMILES: O=C(CCCCCCc1ccccc1)c1cccnn1 [13a, 7-Phenyl-1-(pyridazin-3-yl)-heptan-1-one]
- IC50 [1]: 5000 nM
- TGH selectivity (value in parentheses) [1]: 1
- Ki [2, 4]: 140 nM
- Ki ([2]; Table 4, read-out: FAAH Ki): 140 nM
- IC50 (KIAA1363): > 100000 nM
- KIAA1363 selectivity (value in parentheses) (KIAA1363): > 30
- IC50 (FAAH): 3000 nM

SMILES: COC(=O)c1cccc(-c2ccc(C(=O)CCCCCCc3ccccc3)nn2)n1 [13f, Methyl 6-(6-(7-Phenylheptanoyl)-pyridazin-3-yl)-picolinate]
- IC50 [1]: > 100000 nM
- TGH selectivity (value in parentheses) [1]: > 10
- Ki [2, 4]: 110 nM
- Ki ([2]; Table 4, read-out: FAAH Ki): 110 nM
- IC50 (KIAA1363): > 100000 nM
- KIAA1363 selectivity (value in parentheses) (KIAA1363): > 10
- IC50 (FAAH): 10000 nM

SMILES: N#Cc1cccc(-c2ccc(C(=O)CCCCCCc3ccccc3)nn2)n1 [13h, 6-(6-(7-Phenylheptanoyl)-pyridazin-3-yl)-picolinonitrile]
- IC50 [1]: 12000 nM
- TGH selectivity (value in parentheses) [1]: 1
- Ki ([2]; Table 4, read-out: FAAH Ki): 390 nM
- IC50 (KIAA1363): > 100000 nM
- KIAA1363 selectivity (value in parentheses) (KIAA1363): > 8
- IC50 (FAAH): 13000 nM

SMILES: O=C(CCCCCCc1ccccc1)c1nnn(-c2ccccn2)n1 [15b, 7-Phenyl-1-(2-(pyridin-2-yl)-2H-tetrazol-5-yl)-heptan-1-one]
- IC50 [1]: 120 nM
- Ki [3]: 0.0055 µM
- IC50 (KIAA1363): > 100000 nM
